Results: PubChem BioAssay AID1963842 (Molecular Pharmacology Branch, DTP, NCI, 2024)

System: 677734-321-R-J1-PDC complex spheroid viability
Experiment: Anticancer human tumor 677734-321-R-J1-PDC patient-derived soft tissue sarcoma cell line growth inhibition [POLQ]
Conditions: for IC50: curve of first compound; for viability, T/C: stronger effect = lower value
Summary of the method: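 PDC + HUVEC + MSC complex spheroids; POLQ inhibitors ± partner drugs; top conc. at/near clinical Cmax, else 10 microM (SN-38 1 microM), half-log dilutions; 37 degrees C, 5% CO2.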

[1] = second compound 0.0316 µM, first compound 0.0316 µM
[2] = second compound 0.0316 µM, first compound 0.1 µM
[3] = second compound 0.0316 µM, first compound 0.316 µM
[4] = second compound 0.0316 µM, first compound 1 µM
[5] = second compound 0.1 µM, first compound 0.0316 µM
[6] = second compound 0.1 µM, first compound 0.1 µM
[7] = second compound 0.1 µM, first compound 0.316 µM
[8] = second compound 0.1 µM, first compound 1 µM
[9] = second compound 0.316 µM, first compound 0.0316 µM
[10] = second compound 0.316 µM, first compound 0.1 µM
[11] = second compound 0.316 µM, first compound 0.316 µM
[12] = second compound 0.316 µM, first compound 1 µM
[13] = second compound 1 µM, first compound 0.0316 µM
[14] = second compound 1 µM, first compound 0.1 µM
[15] = second compound 1 µM, first compound 0.316 µM
[16] = second compound 1 µM, first compound 1 µM
[17] = second compound 3.16 µM, first compound 0.0316 µM
[18] = second compound 3.16 µM, first compound 0.1 µM
[19] = second compound 3.16 µM, first compound 0.316 µM
[20] = second compound 3.16 µM, first compound 1 µM
[21] = second compound 10 µM, first compound 0.0316 µM
[22] = second compound 10 µM, first compound 0.1 µM
[23] = second compound 10 µM, first compound 0.316 µM
[24] = second compound 10 µM, first compound 1 µM
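Also: spheroids exposed to compounds for one week.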
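For viability, T/C in this document: 100% = vehicle DMSO treated spheroids.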

O=c1[nH]cc(F)c(=O)[nH]1 + COC1C(OC(N)=O)C(O)C(Oc2ccc3c(O)c(NC(=O)c4ccc(O)c(CC=C(C)C)c4)c(=O)oc3c2C)OC1(C)C
IC50 (second compound 0.0316 µM): 2.78 µM
IC50 (second compound 0.1 µM): 3.13 µM
IC50 (second compound 0.316 µM): 2.91 µM
IC50 (second compound 1 µM): 3.15 µM
IC50 (second compound 3.16 µM): 6.55 µM
IC50 (second compound 10 µM): 2.87 µM
viability, T/C [1]: 113%
viability, T/C [2]: 98.6%
viability, T/C [3]: 106%
viability, T/C [4]: 94.8%
viability, T/C (second compound 0.0316 µM, first compound 3.16 µM): 44.4%
viability, T/C (second compound 0.0316 µM, first compound 10 µM): 40.5%
viability, T/C [5]: 111%
viability, T/C [6]: 103%
viability, T/C [7]: 103%
viability, T/C [8]: 91.9%
viability, T/C (second compound 0.1 µM, first compound 3.16 µM): 49.3%
viability, T/C (second compound 0.1 µM, first compound 10 µM): 43.2%
viability, T/C [9]: 107%
viability, T/C [10]: 102%
viability, T/C [11]: 108%
viability, T/C [12]: 98.5%
viability, T/C (second compound 0.316 µM, first compound 3.16 µM): 46.2%
viability, T/C (second compound 0.316 µM, first compound 10 µM): 37.1%
viability, T/C [13]: 117%
viability, T/C [14]: 101%
viability, T/C [15]: 112%
viability, T/C [16]: 91.6%
viability, T/C (second compound 1 µM, first compound 3.16 µM): 50.2%
viability, T/C (second compound 1 µM, first compound 10 µM): 41.1%
viability, T/C [17]: 106%
viability, T/C [18]: 101%
viability, T/C [19]: 121%
viability, T/C [20]: 83.7%
viability, T/C (second compound 3.16 µM, first compound 3.16 µM): 63.1%
viability, T/C (second compound 3.16 µM, first compound 10 µM): 42.8%
viability, T/C [21]: 105%
viability, T/C [22]: 107%
viability, T/C [23]: 115%
viability, T/C [24]: 89.7%
viability, T/C (second compound 10 µM, first compound 3.16 µM): 47.5%
viability, T/C (second compound 10 µM, first compound 10 µM): 43.3%

CCc1c2c(nc3ccc(O)cc13)-c1cc3c(c(=O)n1C2)COC(=O)[C@]3(O)CC + Nc1ccc(C#CCN(C(=O)Cc2ncc(C(F)(F)F)cc2C(F)(F)F)c2ccc(F)cc2)nn1
IC50 (second compound 0.0316 µM): < 0.00316 µM
IC50 (second compound 0.1 µM): < 0.00316 µM
IC50 (second compound 0.316 µM): < 0.00316 µM
IC50 (second compound 1 µM): < 0.00316 µM
IC50 (second compound 3.16 µM): < 0.00316 µM
IC50 (second compound 10 µM): < 0.00316 µM
viability, T/C (second compound 0.0316 µM, first compound 0.00316 µM): 22.2%
viability, T/C (second compound 0.0316 µM, first compound 0.01 µM): 10.8%
viability, T/C [1]: 5.47%
viability, T/C [2]: 4.82%
viability, T/C [3]: 4.02%
viability, T/C [4]: 1.51%
viability, T/C (second compound 0.1 µM, first compound 0.00316 µM): 19.4%
viability, T/C (second compound 0.1 µM, first compound 0.01 µM): 9.07%
viability, T/C [5]: 6.31%
viability, T/C [6]: 5.31%
viability, T/C [7]: 3.85%
viability, T/C [8]: 1.25%
viability, T/C (second compound 0.316 µM, first compound 0.00316 µM): 24.3%
viability, T/C (second compound 0.316 µM, first compound 0.01 µM): 10.8%
viability, T/C [9]: 5.47%
viability, T/C [10]: 4.33%
viability, T/C [11]: 3.5%
viability, T/C [12]: 1.28%
viability, T/C (second compound 1 µM, first compound 0.00316 µM): 22.5%
viability, T/C (second compound 1 µM, first compound 0.01 µM): 10.8%
viability, T/C [13]: 5.38%
viability, T/C [14]: 5.22%
viability, T/C [15]: 4.16%
viability, T/C [16]: 1.16%
viability, T/C (second compound 3.16 µM, first compound 0.00316 µM): 22.5%
viability, T/C (second compound 3.16 µM, first compound 0.01 µM): 8.9%
viability, T/C [17]: 5.24%
viability, T/C [18]: 4.43%
viability, T/C [19]: 5.24%
viability, T/C [20]: 1.3%
viability, T/C (second compound 10 µM, first compound 0.00316 µM): 25.9%
viability, T/C (second compound 10 µM, first compound 0.01 µM): 11%
viability, T/C [21]: 6.72%
viability, T/C [22]: 4.78%
viability, T/C [23]: 3.27%
viability, T/C [24]: 1.35%
